{
  "source": "paper PMC3205184",
  "about": "“Competitive binding at a nicotinic receptor transmembrane site of two α7-selective positive allosteric modulators with differing effects on agonist-evoked desensitization” (Neuropharmacology, 2011)",
  "biological_target": "T1, α7 nicotinic acetylcholine receptor (α7 nAChR) (Rattus norvegicus, UniProt Q05941)",
  "T1 construct": "gene Chrna7",
  "T1 sequence (Q05941 23-502)": "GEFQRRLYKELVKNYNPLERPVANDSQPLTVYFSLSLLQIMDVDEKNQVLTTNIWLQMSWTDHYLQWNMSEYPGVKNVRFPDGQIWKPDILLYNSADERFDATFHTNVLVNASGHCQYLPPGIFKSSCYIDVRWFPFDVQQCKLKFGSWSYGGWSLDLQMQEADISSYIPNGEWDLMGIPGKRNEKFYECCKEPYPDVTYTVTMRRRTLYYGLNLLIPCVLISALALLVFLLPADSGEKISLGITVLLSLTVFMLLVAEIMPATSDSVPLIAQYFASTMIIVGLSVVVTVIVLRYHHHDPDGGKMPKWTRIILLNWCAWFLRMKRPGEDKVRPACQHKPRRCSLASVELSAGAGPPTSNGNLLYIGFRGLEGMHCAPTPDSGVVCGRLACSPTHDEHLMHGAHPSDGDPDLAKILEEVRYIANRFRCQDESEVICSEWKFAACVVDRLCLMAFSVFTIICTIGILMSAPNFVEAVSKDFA",
  "assay": "two-electrode voltage clamp in Xenopus oocytes; potentiation of EC20 acetylcholine responses, with site-directed mutants",
  "assay_type": "cell-based",
  "data": [
    {"smiles": "O=C(Nc1cc(Cl)ccc1O)Nc1cc(C(F)(F)F)ccc1Cl", "note": "[NS1738]", "values": [
      {"measurement": "EC50", "result": "6.7 ± 1.8", "unit": "µM"}
    ]}
  ]
}
